This is an account of results in patent publication US20240368203A1, “DEGRADATION OF (EGFR) BY CONJUGATION OF EGFR INHIBITORS WITH E3 LIGASE LIGAND AND METHODS OF USE” (BeiGene, Ltd., priority 2022, published 2024).

The structures appear in SMILES notation.

Test [1] concerns EGFR-Del19/T790M/C797S. As to the kind of experiment: EGFR degradation HTRF assay in H1975-clone #28 cells. It counts as cell-based. The following applies: H1975-clone #28 (Del19/T790M/C797S) cells, 16 h treatment; for DC50: IC50 (DC50), read-out: DC50(nM) H1975 # 28 DTC; for Dmax (%) H1975 # 28 DTC: maximum percentage of inhibition (degradation). In short, it runs like this: (§1)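 H1975 clones with endogenous EGFR knocked out, homozygously expressing lentiviral L858R/T790M/C797S (#25) or Del19/T790M/C797S (#28), treated 16 h at 37° C with 8 doses from 10 uM, 5-fold, in 0.2% DMSO. EGFR in lysates measured by HTRF overnight; DC50 from four-parameter fit of % degradation.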
In general terms: In TR-FRET formats the signal depends on donor and acceptor labels being close together.

Test [2] deals with T1, EGFR-L858R/T790M/C797S (Homo sapiens, UniProt P00533, C797S/L858R/T790M).
T1 construct: expressed in transfected cells; host or cells: H1975-clone #25 (lentiviral over-expression, endogenous EGFR knocked out)
T1 sequence (P00533 25-1210 T790M/C797S/L858R): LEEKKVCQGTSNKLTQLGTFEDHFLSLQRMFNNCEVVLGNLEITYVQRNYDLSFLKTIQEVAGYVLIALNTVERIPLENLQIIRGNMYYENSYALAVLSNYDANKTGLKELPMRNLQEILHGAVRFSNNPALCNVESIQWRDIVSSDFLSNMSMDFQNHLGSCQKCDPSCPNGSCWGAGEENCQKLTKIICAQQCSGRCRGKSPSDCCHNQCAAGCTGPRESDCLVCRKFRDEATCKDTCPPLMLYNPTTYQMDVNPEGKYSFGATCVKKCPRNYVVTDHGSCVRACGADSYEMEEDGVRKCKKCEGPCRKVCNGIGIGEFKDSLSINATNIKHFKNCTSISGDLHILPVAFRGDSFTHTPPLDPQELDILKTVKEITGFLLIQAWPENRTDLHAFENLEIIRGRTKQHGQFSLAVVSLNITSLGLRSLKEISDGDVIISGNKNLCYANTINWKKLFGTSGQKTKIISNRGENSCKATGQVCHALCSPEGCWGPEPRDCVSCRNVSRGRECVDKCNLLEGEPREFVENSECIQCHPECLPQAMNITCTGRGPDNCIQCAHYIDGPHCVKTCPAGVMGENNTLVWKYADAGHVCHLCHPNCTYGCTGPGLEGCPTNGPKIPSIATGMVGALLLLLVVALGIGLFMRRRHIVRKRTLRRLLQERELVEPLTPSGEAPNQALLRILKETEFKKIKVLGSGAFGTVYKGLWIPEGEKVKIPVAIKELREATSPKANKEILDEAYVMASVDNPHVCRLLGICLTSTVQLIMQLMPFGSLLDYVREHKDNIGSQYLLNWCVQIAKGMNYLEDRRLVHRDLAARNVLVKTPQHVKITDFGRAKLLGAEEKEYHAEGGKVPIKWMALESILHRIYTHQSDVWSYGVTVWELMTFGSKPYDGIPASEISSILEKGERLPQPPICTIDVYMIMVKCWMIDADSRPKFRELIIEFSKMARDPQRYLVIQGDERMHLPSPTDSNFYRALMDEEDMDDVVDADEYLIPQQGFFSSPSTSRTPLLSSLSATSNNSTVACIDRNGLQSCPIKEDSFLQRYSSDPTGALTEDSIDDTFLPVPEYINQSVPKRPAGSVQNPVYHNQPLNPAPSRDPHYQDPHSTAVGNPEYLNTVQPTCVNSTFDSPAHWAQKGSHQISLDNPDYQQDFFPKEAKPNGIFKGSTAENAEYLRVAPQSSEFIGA
The experiment in a line: EGFR degradation HTRF assay in H1975-clone #25 cells. The following applies: 16 h treatment; for DC50: H1975-clone #25 (L858R/T790M/C797S) cells, IC50 (DC50), read-out: DC50(nM) H1975 # 25-LTC; for Dmax: NCI-H1975, H1975-clone #25 (L858R/T790M/C797S) cells, maximum percentage of inhibition (degradation), read-out: Dmax (%) H1975 # 25-LTC. Format: cell-based. Summed up:
as §1

As usually defined, the DC50 is the concentration giving 50% degradation. One may read the Dmax as the greatest extent of degradation seen. As to `COc1cc(N2CCC3(CCN(CC4CCN(c5ccc6c(c5)CN(C5CCC(=O)NC5=O)C6=O)CC4)CC3)CC2)c(C)cc1Nc1ncc(Br)c(Nc2ccc3nc(C)ccc3c2P(C)(C)=O)n1` (stereo not shown) [Example 72, 3-(5-(4-((9-(4-((5-bromo-4-((5-(dimethylphosphoryl)-2-methylquinolin-6-yl)amino)pyrimidin-2-yl)amino)-5-methoxy-2-methylphenyl)-3,9-diazaspiro[5.5]undecan-3-yl)methyl)piperidin-1-yl)-1-oxoisoindolin-2-yl)piperidine-2,6-dione], in test [1], the DC50 was found to be 1.8 nM and the “Dmax (%) H1975 # 28 DTC” value came out at 82%. Moreover, in test [2], the DC50 turned out to be 2 nM and the Dmax was 82%.
On to `CCc1cc(Nc2ncc(Cl)c(Nc3ccc4nc(C)c(F)cc4c3P(C)(C)=O)n2)c(OC)cc1N1CC2(CN(CC3CN(c4cc(F)c([C@H]5CCC(=O)NC5=O)c(F)c4)C3)C2)C1` [Example 78], for which, in test [1], the DC50 is 1.9 nM and the “Dmax (%) H1975 # 28 DTC” value was 90%. In addition, in test [2], the 50% degradation concentration (DC50) amounted to 5.4 nM and the greatest degradation seen (Dmax) was found to be 74%.
On the same counts, the results for `CCc1cc(Nc2ncc(Br)c(Nc3ccc4nc(C)c(F)cc4c3P(C)(C)=O)n2)c(OC)cc1N1CCC2(CCN(CC3CCN(c4cc(F)c([C@H]5CCC(=O)NC5=O)c(F)c4)CC3)CC2)CC1` [Example 79, (R)-3-(4-(4-((9-(4-((5-bromo-4-((5-(dimethylphosphoryl)-3-fluoro-2-methylquinolin-6-yl)amino)pyrimidin-2-yl)amino)-2-ethyl-5-methoxyphenyl)-3,9-diazaspiro[5.5]undecan-3-yl)methyl)piperidin-1-yl)-2,6-difluorophenyl)piperidine-2,6-dione] are 6.6 nM, 90%, 3.3 nM and 95%.
For `CCc1cc(Nc2ncc(Br)c(Nc3ccc4nc(C)c(F)cc4c3P(C)(C)=O)n2)c(OC)cc1N1CCC2(CC1)CCN(C1CCN(c3ccc4c(c3)C(=O)N(C3CCC(=O)NC3=O)C4=O)CC1)CC2` (stereo not shown) [Example 92, 5-(4-(9-(4-((5-bromo-4-((5-(dimethylphosphoryl)-3-fluoro-2-methylquinolin-6-yl)amino)pyrimidin-2-yl)amino)-2-ethyl-5-methoxyphenyl)-3,9-diazaspiro[5.5]undecan-3-yl)piperidin-1-yl)-2-(2,6-dioxopiperidin-3-yl)isoindoline-1,3-dione], in test [1], the DC50 came out at 3.3 nM and the “Dmax (%) H1975 # 28 DTC” value stood at 67%. Besides, in test [2], the DC50 is 8.2 nM and the Dmax is 85%.
